In the NIST ThermoML archive (doi:10.1021/acs.jced.5b00367):

Experiment: wn = mass fraction of the nth substance listed
Conditions: 101 kPa, Liquid, Alternating current cell with electrodes, w1 = 0.01

CCCCCCCCCC[N+](CC)(CC)CCCCCCCCCC.[Br-] [didecyldiethylammonium bromide] + O
Conditions	electrical conductivity [S/m]
277.55 K	0.0116
277.75 K	0.0115
277.85 K	0.0116
277.95 K	0.0116
278.15 K	0.0117
278.25 K	0.0117
278.35 K	0.0117
278.45 K	0.0116
278.55 K	0.0116
278.65 K	0.0116
278.75 K	0.0117
278.85 K	0.0117
279.05 K	0.0118
279.15 K	0.0118
279.25 K	0.0118
279.35 K	0.0119
279.55 K	0.012
279.65 K	0.012
279.85 K	0.012
279.95 K	0.012
280.15 K	0.0121
280.25 K	0.0121
280.35 K	0.0122
280.45 K	0.0122
280.55 K	0.0123
280.65 K	0.0123
280.75 K	0.0123
280.95 K	0.0123
281.05 K	0.0124
281.15 K	0.0124
281.25 K	0.0124
281.35 K	0.0125
281.45 K	0.0126
281.55 K	0.0126
281.65 K	0.0127
281.75 K	0.0127
281.85 K	0.0127
281.95 K	0.0127
282.05 K	0.0128
282.15 K	0.0129
282.35 K	0.0128
282.45 K	0.0129
282.55 K	0.013
282.65 K	0.013
282.75 K	0.0131
282.85 K	0.0131
282.95 K	0.0131
283.05 K	0.0132
283.15 K	0.0132
283.25 K	0.0133
283.35 K	0.0133
283.45 K	0.0134
283.55 K	0.0134
283.75 K	0.0135
283.85 K	0.0136
283.95 K	0.0136
284.05 K	0.0136
284.15 K	0.0137
284.25 K	0.0137
284.35 K	0.0138
284.45 K	0.0139
284.55 K	0.0138
284.65 K	0.0139
284.75 K	0.014
284.85 K	0.0141
284.95 K	0.0141
285.05 K	0.0143
285.15 K	0.0143
285.25 K	0.0142
285.35 K	0.0144
285.45 K	0.0145
285.55 K	0.0146
285.65 K	0.0146
285.75 K	0.0148
285.85 K	0.0147
285.95 K	0.015
286.05 K	0.015
286.15 K	0.0152
286.25 K	0.0152
286.35 K	0.0154
286.45 K	0.0155
286.55 K	0.0157
286.65 K	0.0158
286.75 K	0.016
286.85 K	0.0161
286.95 K	0.0164
287.05 K	0.0164
287.15 K	0.0167
287.25 K	0.0169
287.35 K	0.0172
287.45 K	0.0175
287.55 K	0.0177
287.65 K	0.0179
287.75 K	0.0182
287.85 K	0.0186
287.95 K	0.0189
288.05 K	0.0192
288.15 K	0.0196
288.25 K	0.0201
288.35 K	0.0206
288.45 K	0.021
288.55 K	0.0213
288.65 K	0.0218
288.75 K	0.022
288.85 K	0.0225
288.95 K	0.0227
289.05 K	0.0228
289.15 K	0.0233
289.25 K	0.0238
289.35 K	0.0241
289.45 K	0.0243
289.55 K	0.0249
289.75 K	0.0256
289.85 K	0.0262
289.95 K	0.0267
290.05 K	0.0274
290.15 K	0.028
290.25 K	0.0287
290.35 K	0.0297
290.45 K	0.0305
290.55 K	0.0311
290.65 K	0.0319
290.75 K	0.0329
290.85 K	0.0339
290.95 K	0.0352
291.15 K	0.0365
291.25 K	0.0379
291.35 K	0.0395
291.45 K	0.0401
291.55 K	0.0419
291.65 K	0.0447
291.75 K	0.0451
291.85 K	0.047
291.95 K	0.0496
292.05 K	0.0526
292.15 K	0.0559
292.25 K	0.0648
292.35 K	0.0649
292.45 K	0.0649
292.55 K	0.0676
292.65 K	0.0687
292.75 K	0.0704
292.85 K	0.0711
292.95 K	0.0714
293.05 K	0.0718
293.15 K	0.0718
293.35 K	0.0721
293.45 K	0.0722
293.55 K	0.0723
293.65 K	0.0724
293.75 K	0.0725
293.85 K	0.0726
293.95 K	0.0726
294.05 K	0.0727
294.15 K	0.0728
294.35 K	0.0729
294.45 K	0.073
294.55 K	0.0731
294.65 K	0.0732
294.75 K	0.0732
294.85 K	0.0733
294.95 K	0.0734
295.05 K	0.0735
295.15 K	0.0737
295.25 K	0.0736
295.35 K	0.0738
295.45 K	0.0739
295.55 K	0.074
295.65 K	0.074
295.75 K	0.0741
295.85 K	0.0741
295.95 K	0.0742
296.05 K	0.0743
296.15 K	0.0744
296.25 K	0.0746
296.35 K	0.0745
296.45 K	0.0746
296.55 K	0.0748
296.65 K	0.0748
296.75 K	0.0749
296.85 K	0.075
296.95 K	0.075
297.05 K	0.0752
297.15 K	0.0752
297.25 K	0.0752
297.35 K	0.0754
297.45 K	0.0755
297.55 K	0.0755
297.65 K	0.0757
297.75 K	0.0757
297.85 K	0.0758
297.95 K	0.0759
298.05 K	0.076
301.15 K	0.0789
301.25 K	0.079
301.35 K	0.0792
301.55 K	0.0794
301.65 K	0.0795
301.75 K	0.0795
301.95 K	0.0797
302.05 K	0.0799
302.15 K	0.08
302.25 K	0.0801
302.35 K	0.0802
302.45 K	0.0802
302.55 K	0.0803
302.65 K	0.0803
302.85 K	0.0806
302.95 K	0.0807
303.15 K	0.0809
303.25 K	0.0811
303.35 K	0.0811
303.45 K	0.0812
303.55 K	0.0814
303.75 K	0.0816
303.85 K	0.0817
304.05 K	0.0818
304.15 K	0.0819
304.35 K	0.0821
304.55 K	0.0823
304.75 K	0.0825
304.85 K	0.0826
304.95 K	0.0827
305.05 K	0.0829
305.35 K	0.0831
305.55 K	0.0831
305.75 K	0.0836
305.85 K	0.0838
306.05 K	0.0839
306.25 K	0.084
306.35 K	0.0841
306.45 K	0.0842
306.65 K	0.0843
306.75 K	0.0845
306.95 K	0.0848
307.05 K	0.0849
307.25 K	0.0851
307.55 K	0.0854
307.65 K	0.0855
307.85 K	0.0857
308.15 K	0.086
308.25 K	0.0861
308.35 K	0.0862
308.55 K	0.0862
308.75 K	0.0864
308.85 K	0.0866
309.15 K	0.0871
309.35 K	0.0872
309.55 K	0.0874
309.75 K	0.0876
309.85 K	0.0877
309.95 K	0.0878
310.25 K	0.088
310.45 K	0.0882
310.55 K	0.0883
310.65 K	0.0884
310.95 K	0.0888
311.05 K	0.089
311.25 K	0.0893
311.45 K	0.0894
311.65 K	0.0894
311.75 K	0.0896
311.85 K	0.0897
312.15 K	0.09
312.35 K	0.0901
312.45 K	0.0902
312.55 K	0.0904
312.75 K	0.0906
312.95 K	0.0908
313.15 K	0.091
